Values quoted from earlier work, collected in patent publication US9024067B2, “Process for preparing carboxylic acid amides useful in the treatment of muscular disorders” (Canbex Therapeutics Limited, priority 2009, dated 2015).

Tested on: spasticity in CREAE mice
Conditions: initial studies (WO2005/080316)

CC(CO)NC(=O)c1cccc(/C=C\CCCC(=O)N(C)C)c1 (stereo not shown) [VSN-16]
effect on spasticity: marked effect on spasticity
